From patent US20100266503A1, “Breast Cancer Methods, Medicaments and Agents” (priority 2007, published 2010) come the findings set out here.

The structures appear in SMILES notation. Non-standard residues stand in square brackets, D forms with d. Residues, ends and D or L forms follow the SMILES beside them. *: point of attachment. Nle = CCCC[C@H](N)C(=O)O; Cbz = O=C(OCc1ccccc1)*

Common to all, as to format: cell-based
In test [1] the test system is CD44 in ZR75-1 and MCF10A cells. The test is described as follows: CD44 immunofluorescence staining after GSI1. The settings on record: GSI1 750 nM. An excerpt:
Stained sections of the breast cancer cell line ZR75-1 (A-D) and the normal cell line (E-H) showing effect of GSI1 on CD44 concentration. Upper sections (A, B, E and F) show cells treated with GSI1. Lower sections (C, D, G and H) show untreated cells. Sections were stained with an anti CD44 primary antibody and a fluorescently labeled secondary antibody to detect CD44. Nuclei were counterstained with DAPI, as shown in panels A, C, E and G.
In order to understand the mechanism of how GS inhibition by GSI1 leads to cell death, we investigated the effect of GS inhibition on CD44 expression which is a substrate for GS and is a cell adhesion molecule. […] The effect of GSI1 on CD44 expression was investigated in one cancer, ZR75-1, and one normal, MCF10A, cell line±GSI1 (at 750 nM i.e. inhibitory dose) (FIG. 9). We used an anti CD44 primary antibody and a fluorescently labelled secondary antibody to detect the CD44. Specifically, the CD44 antibody was a FITC conjugated antibody (BD Biosciences) that was used at a 1:40 dilution. The antibody was incubated for 60 mins at room temperature after fixing in formalin. Nuclei were counterstained with DAPI. […] Thus the inhibitor was not causing the cells to become detached from the plates and die.

Test [2] has as its system notch intracellular domain in MCF-7 cells. The test is described as follows: Staining for notch intracellular domain expression (surrogate marker for GS activity). To be noted: 48 hours; Gefitinib 15 μM, U0126 10 μM, PD98059 10 μM. An excerpt:
(A) GS activity as measured by a fluorescent assay in MCF7 breast cancer cell lines and MCF10A normal cell lines, with and without treatment with the ERK1/2 inhibitor U0126. (B) Sections of MCF7 breast cancer cell lines stained for notch intracellular domain expression (as a surrogate marker for GS activity). Shown are sections of cells untreated (NO), and cells treated with oestrogen (E2), faslodex (FAS), Gefitinib (Gef), GSI1, and the ERK1/2 inhibitors U0126 (U) and. PD98059 (PD). (C) Sections of MCF10A normal cell lines stained for notch intracellular domain expression. Shown are sections of cells untreated (NO), and cells treated with Gefitinib (Gef) and PD98059 (PD).
Cancer and normal cell lines were treated with oestrogen (E2), faslodex (FAS), Gefitinib (Gef 15 μM), GSI1, and the ERK1/2 inhibitors U0126 (U) (10 μM) and PD98059 (PD) (10 μM) for 48 hours and a fluorescent assay performed to measure GS activity. The figures show relative fluorescence therefore the amount of fluorescence in the treated cells relative to the untreated minus background (these figures are corrected for background).

The subject of test [3] is Hes1 transcriptional activity (Notch target gene). The test is described as follows: CSL (Hes-1) Luciferase reporter assay upon GSI1 treatment. To be noted: 750 nM, 2 microM, 5 microM; 24 h. The protocol:
For the Luciferase based reporter assay, 5×10^4 cells were plated in 48 well plates and allowed to adhere over night. The following day, cells were transfected with 200 ng of the 23A plasmid (Hes-1 reporter). 24 h after transfection, transfection media was evacuated and replaced with treatment media (750 nM, 2 microM, 5 microM of the GSI1 and a vehicle treated control). Cells were incubated for 24 h at 37 C. At the 24 h time point the Dual Glow (Promega) Luciferase Kit was implemented according to manufacturer's protocol).

The test system of the next test is MCF-10A cells. The test is described as follows: SRB proliferation of GSI1 on normal cell line MCF-10A. The protocol: (§1) Graphs illustrating the effects of GSI1, at different concentrations, on proliferation in four normal cell lines: (A) MCF-10A cells, (B) MCF-10A, (C) L226U19 cells and (D) L226TS4 cells.
(§2) The effect of GSI1 on proliferation in normal cell lines was investigated as, illustrated in FIG. 8. […] Therefore we repeated in all 3 normal lines (MCF-10A, L226U19 and L226TS4) at much higher concentrations (10 μM, 20 μM, 40 μM, 60 μM and 80 μM). 10 μM GSI1 was required to kill the MCF-10A cells and over 40 μM GSI1 was required to kill the two L226 cell lines. MCF-10A cells were cultured in DMEM (Invitrogen 11995-040), […] Insulin (Sigma, 11882), 20 ng/ml hEGF (Trevigen, 3443-050-01), 100 ng/ml Cholera Toxin (Sigma, C8052), 500 ng/ml Hydrocortisone (Sigma, H0888), 5% Horse Serum +100U/m1 penicillin, 0.1 mg/ml streptomycin, 2 mM L-glutamine at 37° C. in 5% CO2. L226U19 and TS4 cells were cultured in DME: F12 plus 10% FCS, 5 μg/ml insulin, 1 μg/ml Hydrocortisone, 10 ng/ml hEGF, 10 ng/ml Cholera toxin 100 U/ml penicillin, 0.1 mg/ml streptomycin, 2 mM L-glutamine at 37° C. in 5% CO2.

Test [4] concerns L226U19 and L226TS4 cells. The test is described as follows: SRB proliferation of GSI1 on normal L226 cell lines. To be noted: tested at 10-80 μM; the two L226 cell lines. The method, then: as §1, §2
In test [5] the test system is GS components, Notch 1, Actin and Lamin A/C in a single breast cancer cell line. The test is described as follows: Western blot of protein levels after GSI1. To be noted: 750 nM GSI1 vs DMSO control. The protocol: Western blot analysis of GS components, Notch 1, Actin and Lamin A/C in response to DMSO control (1) or 750 nm GSI1 (2). Tubulin was used as a loading control.
FIG. 10 illustrates the effect of GSI1 on the protein levels of the GS components and of Notch 1, Actin and Lamin A/C in a single breast cancer cell line. Shown, are Western blots of the proteins in reponse to treatment with GSI1 (750 nM) or DMSO control. All antibodies were from Abcam unless otherwise stated. Notch1 (Mouse) 1:500, Nicastrin rabbit 1:500, Pen-2 rabbit 1:1000, Presenilin, Goat 1:200, APH-1A Rabbit, 1:500, APH-1B Rabbit, 1:1000, Actin Mouse, 1:20,000(Santa Cruz), Tubulin, Mouse, 1:1000 (Sigma), Lamin NC 1:5000 (Santa Cruz). Secondary Antibodies used were goat anti mouse horseradish peroxidase (Sigma) 1:5000, goat anti-rabbit horseradish peroxidase (Sigma 1:10000) and donkey anti-goat horseradish peroxidase (Sigma 1:5000). Although GSI1 had some effects on protein expression these were marginal apart from Notch 1.
(In general: In western blotting, separated proteins are transferred to a membrane and probed.)

Consider `CCCC[C@@H](C=O)NC(=O)[C@H](CC(C)C)NC(=O)[C@H](CC(C)C)NC(=O)OCc1ccccc1` [GSI1, Z-Leu-Leu-Nle-CHO] (Cbz-Leu-Leu-[Nle]-aldehyde), for which the CD44 expression entry in test [1] is listed as “up-regulation of CD44”. Further, the “notch intracellular domain expression localized to the nucleus compared to untreated cells” value in test [2] was “appear to increase notch intracellular domain expression localized to the nucleus”. Moreover, the “Hes1 reporter (Luciferase) activity” value in test [3] is “dose dependant decrease of the reporter activity”. Also, in the test with MCF-10A cells (GSI1 100 nM to 10 μM), the effect on proliferation entry is “no effect on proliferation”. For the same compound, in the test on MCF-10A cells (repeat at 10-80 μM), the “concentration required to kill the cells” value was found to be 10 µM. In addition, the “concentration required to kill the cells” value in test [4] was “over 40 μM”. Besides, in test [5], the “Notch 1 protein expression” value is listed as “markedly upregulated” and the “protein expression other than Notch 1 (GS components, Actin, Lamin A/C)” value was “only marginal effects on protein expression”.
